# Assay results published in ChEMBL document CHEMBL1131697, “Toxicity and osmoprotective activities of analogues of glycine betaine obtained by solid phase organic synthesis towards Sinorhizobium meliloti” (1999).
# Assays:
# Assay type in all cases: functional
# [1] = system: Sinorhizobium meliloti; assay: Tested for effect on doubling time of growth of Sinorhizobium meliloti 102F34 in Lactate aspartate(LAS) minimal medium (with addition of NaCl)
# [2] = system: Sinorhizobium meliloti; assay: Tested for effect on doubling time of growth of Sinorhizobium meliloti 102F34 in Lactate aspartate(LAS) minimal medium (without addition of NaCl)
# [3] = system: Sinorhizobium meliloti; assay: Maximal attenuance reached in the stationary phase was reported against Sinorhizobium meliloti 102F34 in Lactate aspartate(LAS) minimal medium (with addition of NaCl)
# [4] = system: Sinorhizobium meliloti; assay: Maximal attenuance reached in the stationary phase was reported against Sinorhizobium meliloti 102F34 in Lactate aspartate(LAS) minimal medium (without addition of NaCl)
# [5] = Evaluated for substrate specificity of betaine uptake in salt-stressed Sinorhizobium meliloti. compound to substrate ratio 100:1
# [6] = Evaluated for substrate specificity of betaine uptake in salt-stressed Sinorhizobium meliloti. compound to substrate ratio 10:1
# [7] = Evaluated for substrate specificity of betaine uptake in salt-stressed Sinorhizobium meliloti. compound to substrate ratio 1:1; parameters: unit not given here
compound,measurement,setting,value
C[N+]1(CC(=O)O)CCCC1.[Cl-],DT,[1],11 h
same,DT,[2],45 h
same,Dmax,[3],2.1
same,Dmax,[4],0.6
same,Substrate specificity of betaine uptake,[5],95
same,Betaine uptake (substrate specificity),[6],61
same,Ratio,[7],20
C[N+](C)(C)CC(=O)O [BETAINE],DT,[1],7 h
same,DT,[2],5.5 h
same,Dmax,[3],2.1
same,Dmax,[4],2
same,Substrate specificity of betaine uptake,[5],99
same,Betaine uptake (substrate specificity),[6],94
same,Ratio,[7],80
CCCC[N+](C)(C)CC(=O)O.[Cl-],DT,[1],20 h
same,DT,[2],6.4 h
same,Dmax,[3],0.9
same,Dmax,[4],1.9
same,Substrate specificity of betaine uptake,[5],23
same,Betaine uptake (substrate specificity),[6],10
same,Ratio,[7],1
CC[N+](CC)(CC)CC(=O)O.[Cl-],DT,[1],18 h
same,DT,[2],7.9 h
same,Dmax,[3],0.9
same,Dmax,[4],1.8
same,Substrate specificity of betaine uptake,[5],27
same,Betaine uptake (substrate specificity),[6],4
same,Ratio,[7],0
CC(C)[N+](C)(C)CC(=O)O.[Cl-],DT,[1],20 h
same,DT,[2],6.9 h
same,Dmax,[3],0.9
same,Dmax,[4],1.8
same,Substrate specificity of betaine uptake,[5],45
same,Betaine uptake (substrate specificity),[6],4
same,Ratio,[7],0
C[N+]1(CC(=O)O)CCOCC1.[Cl-],DT,[1],13 h
same,DT,[2],28 h
same,Dmax,[3],1.9
same,Dmax,[4],1
same,Substrate specificity of betaine uptake,[5],43
same,Betaine uptake (substrate specificity),[6],7
same,Ratio,[7],1
C[S+](C)CC(=O)O.[Cl-],DT,[1],32 h
same,DT,[2],35 h
same,Dmax,[3],0.5
same,Dmax,[4],0.5
same,Substrate specificity of betaine uptake,[5],98
same,Betaine uptake (substrate specificity),[6],90
same,Ratio,[7],52
CC[N+](C)(C)CC(=O)O.[Cl-],DT,[1],11 h
same,DT,[2],35 h
same,Dmax,[3],2
same,Dmax,[4],0.7
same,Substrate specificity of betaine uptake,[5],96
same,Betaine uptake (substrate specificity),[6],79
same,Ratio,[7],35
CC[N+](C)(CC)CC(=O)O.[Cl-],DT,[1],13 h
same,DT,[2],9 h
same,Dmax,[3],2
same,Dmax,[4],1.6
same,Substrate specificity of betaine uptake,[5],57
same,Betaine uptake (substrate specificity),[6],10
same,Ratio,[7],4
